Test systems include BT-549 breast; DU-145 prostate; K-562 leukemia; MDA-MB-435; MDA-N; NCI-H23 lung; OVCAR-5 ovarian; RPMI-8226 leukemia; RXF 393 renal; SR leukemia.
Common to all, as to test: NCI anticancer screen, dose series, 48 h

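96-well plates; 48 h exposure; 5 concentrations. Endpoints by linear interpolation between flanking doses. Not reached: highest tested concentration assigned. Definition used: TGI = concentration required for complete inhibition of growth.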

The text below walks through data of PubChem BioAssay (NCI).

`COc1cc([C@@H]2c3cc4c(cc3[C@H](OC3OC5COC(C(C)C)OC5C(O)C3O)C3COC(=O)[C@@H]32)OCO4)cc(OC)c1OC` (stereo not given in full): the TGI in the test with BT-549 breast was 20.2 µM; with DU-145 prostate, 55.5 µM; in the test with K-562 leukemia it was over 100 µM; in the test with MDA-MB-435, over 54.2 µM; in the test with MDA-N it was 3.53 µM; with NCI-H23 lung, 16.5 µM. Besides, the TGI in the test with OVCAR-5 ovarian is over 73.8 µM; in the test on RPMI-8226 leukemia, 48.8 µM; in the test with RXF 393 renal it was 9.46 µM; in the test on SR leukemia, 66.5 µM.
On to `C1=Nc2ccc(cc2)-c2ccc(cc2)N=Cc2ccccc2OCc2cccc(n2)COc2ccccc21`, for which the TGI was over 95.4 µM in the test on BT-549 breast; over 100 µM in the test with DU-145 prostate; over 100 µM in the test on K-562 leukemia; over 100 µM with MDA-MB-435; over 100 µM with MDA-N; 45.9 µM in the test with NCI-H23 lung. The TGI in the test on OVCAR-5 ovarian was over 100 µM; in the test with RPMI-8226 leukemia, over 100 µM; in the test with RXF 393 renal, over 84 µM; with SR leukemia, over 100 µM.
Consider `Cc1ccc(S(=O)(=O)N(CC(O)COc2ccccc2)c2ccccc2Cl)cc1` (stereo not given), for which the TGI in the test with BT-549 breast was 31.4 µM; in the test on DU-145 prostate, 57.5 µM; in the test on K-562 leukemia, 36.1 µM; in the test with MDA-MB-435, 31.7 µM; in the test with MDA-N it was 33.2 µM; in the test with NCI-H23 lung, 31.1 µM. In addition, the TGI was found to be 51 µM with OVCAR-5 ovarian, 30.4 µM in the test with RPMI-8226 leukemia, 32 µM in the test on RXF 393 renal and 35.1 µM in the test on SR leukemia.
Regarding `COC(=O)c1cc(NC(=O)Cn2c3ccccc3c3ccccc32)cn1C`, the TGI in the test with BT-549 breast was 71.3 µM; in the test on DU-145 prostate, over 100 µM; in the test with K-562 leukemia, over 100 µM; in the test with MDA-MB-435, over 100 µM; with MDA-N it was over 100 µM; with NCI-H23 lung it was over 100 µM. In addition, the TGI is over 100 µM with OVCAR-5 ovarian, 75 µM in the test with RPMI-8226 leukemia, over 100 µM with RXF 393 renal and over 100 µM with SR leukemia.
As for `COc1cc2c(cc1OC)C/C(=N\O)c1cc(OC)c(OC)cc1/C=C\2`, the TGI in the test with BT-549 breast is 97.1 µM; in the test with DU-145 prostate it was over 64 µM; with K-562 leukemia, over 100 µM; with MDA-MB-435 it was 4.05 µM; in the test with MDA-N it was over 100 µM; in the test with NCI-H23 lung, over 100 µM. Further, the TGI in the test with OVCAR-5 ovarian is over 55.3 µM; in the test with RPMI-8226 leukemia, 66.9 µM; in the test with RXF 393 renal, 38.4 µM; in the test on SR leukemia, over 50.8 µM.
Consider `CCc1c[n+]2c(cc1C1=CN3c4ccccc4[C@]45CCN6C/C(=C/CO)[C@H](C[C@H]64)[C@@H]([C@@H]1O)[C@H]35)-c1[nH]c3ccccc3c1CC2`, for which the TGI in the test with BT-549 breast, in the test with DU-145 prostate, in the test with K-562 leukemia, with MDA-MB-435, in the test with MDA-N and with NCI-H23 lung was over 50 µM each time. Moreover, the TGI in the test with OVCAR-5 ovarian, with RPMI-8226 leukemia, in the test with RXF 393 renal and with SR leukemia was over 50 µM each time.
Turning to `CCOP(=O)(OCC)C(Cc1cn(S(=O)(=O)c2ccc(C)cc2)cn1)C(=O)O` (stereo not given), the TGI with BT-549 breast, in the test on DU-145 prostate, in the test with K-562 leukemia, in the test on MDA-MB-435, in the test with MDA-N and with NCI-H23 lung was over 100 µM throughout. The TGI in the test with OVCAR-5 ovarian, in the test on RPMI-8226 leukemia, with RXF 393 renal and in the test with SR leukemia was over 100 µM throughout.
As to `C[C@]12CC[C@@H]3c4cc(C=O)c(OCc5ccccc5)cc4CC[C@H]3[C@@H]1CCC2OCc1ccccc1` (stereo not given in full), the TGI with BT-549 breast, with DU-145 prostate, with K-562 leukemia, with MDA-MB-435, in the test with MDA-N and in the test with NCI-H23 lung was over 100 µM each time. The TGI in the test on OVCAR-5 ovarian, with RPMI-8226 leukemia, in the test with RXF 393 renal and in the test on SR leukemia was over 100 µM in each case.
For the molecule `O=C(NC12CC3CC(CC(C3)C1)C2)n1cnc2c(Cl)ncnc21`, the TGI in the test with BT-549 breast was 84.1 µM; in the test on DU-145 prostate, 63.9 µM; with K-562 leukemia, over 100 µM; in the test with MDA-MB-435, 40 µM; in the test on MDA-N, 45.9 µM; in the test on NCI-H23 lung, 65.4 µM. Further, the TGI was over 100 µM with OVCAR-5 ovarian, over 100 µM in the test with RPMI-8226 leukemia, over 100 µM in the test on RXF 393 renal and 29 µM in the test on SR leukemia.
For `c1ccc(C(OCCN2CC3CCC(C2)N3)c2ccccc2)cc1`, the TGI in the test on BT-549 breast is over 100 µM; with DU-145 prostate, over 100 µM; in the test with K-562 leukemia it was over 100 µM; with MDA-MB-435, over 100 µM; in the test on MDA-N, 79.6 µM; with NCI-H23 lung, over 100 µM. In addition, the TGI with OVCAR-5 ovarian, with RPMI-8226 leukemia, in the test on RXF 393 renal and in the test on SR leukemia was over 100 µM each time.
Take `CC(NC(=O)C(NC(=O)C(NC(=O)C(F)(F)F)C(C)C)C(C)C)C(=O)Oc1c(Cl)c(Cl)c(Cl)c(Cl)c1Cl` (stereo not given): the TGI in the test with BT-549 breast, in the test with DU-145 prostate, in the test with K-562 leukemia, in the test on MDA-MB-435, in the test with MDA-N and with NCI-H23 lung was over 100 µM each time. For the same molecule, the TGI with OVCAR-5 ovarian, with RPMI-8226 leukemia, in the test with RXF 393 renal and with SR leukemia was over 100 µM each time.
Consider `CCOC(=O)C1=C(C)NC(c2ccccc2)=C(C(=O)OCc2ccccc2)C1C#Cc1ccccc1` (stereo not given), for which the TGI with BT-549 breast, in the test with DU-145 prostate, in the test with K-562 leukemia, in the test with MDA-MB-435, in the test with MDA-N and in the test on NCI-H23 lung was over 100 µM in each case. Further, the TGI in the test with OVCAR-5 ovarian, with RPMI-8226 leukemia, in the test with RXF 393 renal and in the test with SR leukemia was over 100 µM in each case.
Take `COc1ccc2cc(CNCCOCCOCCNCc3ccc4cc(OC)ccc4c3)ccc2c1`: the TGI in the test with BT-549 breast was 3.59 µM; in the test on DU-145 prostate, 3.15 µM; in the test with K-562 leukemia, 1.92 µM; in the test with MDA-MB-435 it was 1.21 µM; in the test with MDA-N, 2.35 µM; in the test on NCI-H23 lung, 3.02 µM. Further, the TGI was determined as 3.89 µM in the test on OVCAR-5 ovarian, 2.03 µM in the test with RPMI-8226 leukemia, 3.18 µM in the test with RXF 393 renal and 2.29 µM in the test on SR leukemia.
On to `CCCC(CCC(=O)O)(CCC(=O)O)[N+](=O)[O-]`, for which the TGI in the test on BT-549 breast, in the test on DU-145 prostate, in the test with K-562 leukemia, with MDA-MB-435, in the test on MDA-N and with NCI-H23 lung was over 100 µM each time. Further, the TGI in the test on OVCAR-5 ovarian, in the test with RPMI-8226 leukemia, with RXF 393 renal and in the test with SR leukemia was over 100 µM in each case.
Turning to `Clc1cccc(C=NC23CC4CC(CC(C4)C2)C3)c1Cl`, the TGI in the test with BT-549 breast, in the test with DU-145 prostate, in the test with K-562 leukemia, with MDA-MB-435, in the test on MDA-N and in the test with NCI-H23 lung was over 10 µM each time. Also, the TGI in the test on OVCAR-5 ovarian is over 10 µM; with RPMI-8226 leukemia, over 10 µM; with RXF 393 renal, over 10 µM; in the test on SR leukemia, 2.63 µM.
`Cc1[nH]c(-c2ccccc2)c(O)c1C(=O)OC1CC(C)CCC1C(C)C` (stereo not given): the TGI in the test with BT-549 breast was 33 µM; with DU-145 prostate, 29.7 µM; with K-562 leukemia, over 100 µM; in the test with MDA-MB-435 it was 28 µM; in the test on MDA-N, 29.9 µM; in the test with NCI-H23 lung, 26.6 µM. For the same molecule, the TGI turned out to be 27.2 µM with OVCAR-5 ovarian, 54.9 µM in the test with RPMI-8226 leukemia, 24.3 µM with RXF 393 renal and 34.7 µM with SR leukemia.
Regarding `Clc1ccc(CCNCCNC2(c3cc4ccccc4s3)CCCCC2)cc1Cl`, the TGI worked out at 3.44 µM in the test with BT-549 breast; 3.88 µM in the test on DU-145 prostate; 4.52 µM with K-562 leukemia; 3.83 µM in the test on MDA-MB-435; 3.33 µM in the test with MDA-N; 3.38 µM in the test on NCI-H23 lung. Further, the TGI came out at 3.64 µM with OVCAR-5 ovarian, 4.62 µM in the test on RPMI-8226 leukemia, 4 µM in the test with RXF 393 renal and 4.19 µM in the test on SR leukemia.
In the case of `CCOC(=O)/C(C(N)=O)=C(/O)c1cnccn1`, the TGI with BT-549 breast, with DU-145 prostate, in the test on K-562 leukemia, in the test with MDA-MB-435, with MDA-N and in the test on NCI-H23 lung was over 100 µM in each case. The TGI in the test with OVCAR-5 ovarian, with RPMI-8226 leukemia, with RXF 393 renal and with SR leukemia was over 100 µM each time.
For `O=C(NC1CCCCC1)N1CCNC1=S`, the TGI in the test with BT-549 breast, in the test with DU-145 prostate, with K-562 leukemia, in the test with MDA-MB-435, in the test on MDA-N and in the test on NCI-H23 lung was over 100 µM each time. Moreover, the TGI in the test on OVCAR-5 ovarian, in the test with RPMI-8226 leukemia, in the test with RXF 393 renal and in the test on SR leukemia was over 100 µM each time.
`Cc1cc2nc3c(C)c4ccccc4c(C)n3c2cc1C`: the TGI in the test with BT-549 breast is over 10 µM; in the test on DU-145 prostate, over 10 µM; in the test on K-562 leukemia it was over 10 µM; in the test on MDA-MB-435, over 10 µM; in the test with MDA-N, 7.8 µM; in the test on NCI-H23 lung it was over 10 µM. Also, the TGI with OVCAR-5 ovarian is over 10 µM; with RPMI-8226 leukemia, over 10 µM; with RXF 393 renal, 8.66 µM; in the test with SR leukemia it was 9.01 µM.
As for `CC(C)C(C=O)C(O)(C(F)(F)F)C(F)(F)F` (stereo not given), the TGI with BT-549 breast, with DU-145 prostate, in the test with K-562 leukemia, in the test with MDA-MB-435, with MDA-N and in the test on NCI-H23 lung was over 100 µM in each case. Further, the TGI in the test on OVCAR-5 ovarian, with RPMI-8226 leukemia, in the test with RXF 393 renal and in the test on SR leukemia was over 100 µM in each case.
